Laboratory results taken from patent US20200009281A1, “ODOR CONTROL AGENT” (priority 2017, published 2020).

Biological target: T1, Urease Enzyme from Canavalia ensiformis (Jack bean) (Canavalia ensiformis, UniProt P07374)
T1 construct: purchased
Experiment: Headspace ammonia measurement over treated cat litter inoculated with synthetic urine and urease
Type: biochemical
Conditions: headspace ammonia after 1 day; 100 g NATIONAL 12 Bentonite cat litter plus active, 10 mL inoculant (urea solution + urease); Sensidyne detector tubes
Protocol: In a bottle add the following components: Urea (ACS Reagent Grade): 18.8 g, and 250 g of deionized water. The bottle is capped and mixed to dissolve urea. The pH of the solution is measured to confirm the pH is between 6.5 and 7.
Immediately before use, mix 6.25 mL of Urease Enzyme from Canavalia ensiformis (Jack bean) in Glycerol (Type III, 500-800 units/mL) with the full volume of Synthetic Urine prepared above.
Charge a plastic bag with 100 g of untreated NATIONAL™ 12 Bentonite (particle size approximately 1.6 mm) cat litter. Add the active component or mixture, as prepared in the Active Mixture Preparation section, to the bag containing the untreated litter. Seal the bag to prevent loss of material and mix by shaking for 30 seconds. Pour the mixture into a hexagonal plastic weighboat contained within a 1 gallon sealable plastic container having a lid with a hole covered with tape. […]
Low (0.2-20 ppm) or high (5-260 ppm) range […] ® Ammonia Gas Detector Tubes are used to quantify the headspace ammonia concentration. The following procedure is used for ammonia detection and quantification in each test sample. […] Read the scale at the maximum point of the stained layer (yellow in color). Read and report the concentration immediately after measurement. If the reading is off scale, for example 20 ppm for the low range tubes, repeat the measurement using the high range gas detector tube. […]

T1 sequence (P07374 whole entry, looked up): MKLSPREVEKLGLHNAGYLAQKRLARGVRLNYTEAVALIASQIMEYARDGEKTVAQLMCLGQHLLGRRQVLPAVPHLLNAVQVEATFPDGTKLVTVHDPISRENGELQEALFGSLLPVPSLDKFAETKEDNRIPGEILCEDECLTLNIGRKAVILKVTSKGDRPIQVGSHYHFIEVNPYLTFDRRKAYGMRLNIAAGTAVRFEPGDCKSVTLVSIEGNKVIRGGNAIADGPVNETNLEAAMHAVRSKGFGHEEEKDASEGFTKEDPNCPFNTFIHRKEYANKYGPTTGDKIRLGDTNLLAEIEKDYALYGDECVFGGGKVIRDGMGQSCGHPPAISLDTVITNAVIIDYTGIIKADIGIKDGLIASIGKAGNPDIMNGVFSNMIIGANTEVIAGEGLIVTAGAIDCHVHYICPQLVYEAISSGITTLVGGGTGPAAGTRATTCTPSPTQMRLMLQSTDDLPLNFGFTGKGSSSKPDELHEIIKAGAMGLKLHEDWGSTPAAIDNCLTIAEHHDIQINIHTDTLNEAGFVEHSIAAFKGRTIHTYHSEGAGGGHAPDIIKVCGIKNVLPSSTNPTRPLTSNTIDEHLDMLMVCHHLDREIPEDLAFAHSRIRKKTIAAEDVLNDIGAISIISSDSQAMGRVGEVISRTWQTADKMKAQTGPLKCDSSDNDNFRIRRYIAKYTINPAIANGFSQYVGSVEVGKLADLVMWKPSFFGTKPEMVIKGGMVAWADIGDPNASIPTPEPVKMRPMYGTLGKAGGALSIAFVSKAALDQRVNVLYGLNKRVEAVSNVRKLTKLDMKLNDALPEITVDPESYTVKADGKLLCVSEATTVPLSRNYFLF

O=C([O-])CN(CCN(CC(=O)[O-])CC(=O)O)CC(=O)O.[K+].[K+] [Example 2, K2EDTA]
ppm Ammonia: 190 ppm

O=C(O)CC(O)(CC(=O)O)C(=O)O [Example 3, Citric Acid]
ppm Ammonia: 140 ppm
